In brackets after ≈: the same amount, converted by molar mass. A value given as a limit tells only on which side of the number the result lay.

Series [1] can be described thus: Intrinsic clearance in human liver microsomes at 1 umol/l after 15 to 30 mins in presence of NADPH by LC-MS/MS analysis. It is filed as ADME, microsome. The settings on record: read-out: CLH.
Series [2] can be described thus: Aqueous solubility of the compound in DMSO at pH 6.8 by HPLC method. The class given is physicochemical.
Series [3] addresses T1, CDK8/Cyclin C (Homo sapiens, UniProt P49336). The series can be described thus: Inhibition of kinase tracer-236 binding to GST-tagged CDK8/CyclinC (unknown origin) after 60 mins by TR-FRET assay. It is filed as protein-complex assay.
Series [4] has as its target Cyclin-C/Cyclin-dependent kinase 19 (Homo sapiens, UniProt Q9BWU1). The series is described as follows: Inhibition of kinase tracer-236 binding to GST-tagged CDK19/CyclinC (unknown origin) after 60 mins by TR-FRET assay. The class given is protein-complex assay.
Series [5] concerns the target Cyclin-dependent kinase 8 (Homo sapiens, UniProt P49336). The series is described as follows: Inhibition of CDK8 in human SW480 cells assessed as decrease in STAT1 phosphorylation at Ser727 after 2 hrs by Western blot method. A general note: Immunoblotting shows a protein as a band on a membrane.
Series [6] addresses T1, CDK8/Cyclin C. The series can be described thus: Inhibition of full length recombinant human His-tagged CDK8/Cyclin C expressed in baculovirus expression system using Ulight-GS peptide as substrate measured after 30 mins by TR-FRET based LANCE assay. (In general: In TR-FRET formats the signal depends on donor and acceptor labels being close together.)

Chain of Cyclin-dependent kinase 8 (P49336 whole entry): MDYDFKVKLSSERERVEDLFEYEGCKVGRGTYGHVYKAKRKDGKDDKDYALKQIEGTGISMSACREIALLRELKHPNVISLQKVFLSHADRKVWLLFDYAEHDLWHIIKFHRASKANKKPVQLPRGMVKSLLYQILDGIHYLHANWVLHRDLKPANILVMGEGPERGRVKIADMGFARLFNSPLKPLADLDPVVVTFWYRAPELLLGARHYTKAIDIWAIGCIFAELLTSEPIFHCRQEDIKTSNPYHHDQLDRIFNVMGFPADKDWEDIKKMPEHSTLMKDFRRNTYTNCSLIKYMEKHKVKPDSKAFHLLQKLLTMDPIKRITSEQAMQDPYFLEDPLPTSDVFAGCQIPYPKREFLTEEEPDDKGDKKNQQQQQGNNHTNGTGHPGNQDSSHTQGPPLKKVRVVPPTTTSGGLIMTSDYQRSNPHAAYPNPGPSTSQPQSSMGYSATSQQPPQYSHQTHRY
T1 sequence (P49336 whole entry): as above
T1 sequence (P24863 whole entry, further chain): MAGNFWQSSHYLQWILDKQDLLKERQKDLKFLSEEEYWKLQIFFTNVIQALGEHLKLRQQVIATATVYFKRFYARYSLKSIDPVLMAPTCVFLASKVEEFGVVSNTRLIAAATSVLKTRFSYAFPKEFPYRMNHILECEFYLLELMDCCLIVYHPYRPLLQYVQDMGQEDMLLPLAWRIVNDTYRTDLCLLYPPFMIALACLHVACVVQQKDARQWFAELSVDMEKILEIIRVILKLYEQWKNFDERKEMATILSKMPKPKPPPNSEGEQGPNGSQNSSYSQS
Chain of Cyclin-C/Cyclin-dependent kinase 19 (Q9BWU1 whole entry): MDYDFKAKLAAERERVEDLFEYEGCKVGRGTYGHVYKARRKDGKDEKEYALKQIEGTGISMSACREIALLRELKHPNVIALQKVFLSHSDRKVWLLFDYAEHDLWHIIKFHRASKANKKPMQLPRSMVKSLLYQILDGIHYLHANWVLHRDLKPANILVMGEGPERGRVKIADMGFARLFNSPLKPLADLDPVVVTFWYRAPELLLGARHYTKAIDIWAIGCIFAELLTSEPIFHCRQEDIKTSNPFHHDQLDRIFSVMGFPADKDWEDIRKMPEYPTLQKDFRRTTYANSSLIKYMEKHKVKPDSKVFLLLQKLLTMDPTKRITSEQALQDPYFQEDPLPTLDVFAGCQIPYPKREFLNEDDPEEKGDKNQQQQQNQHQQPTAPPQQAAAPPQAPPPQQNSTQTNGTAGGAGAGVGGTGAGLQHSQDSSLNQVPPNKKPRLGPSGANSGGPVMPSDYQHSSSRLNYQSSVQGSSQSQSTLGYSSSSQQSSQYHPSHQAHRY
Chain of Cyclin-C/Cyclin-dependent kinase 19 (P24863 whole entry, further chain): as the sequence (P24863 whole entry, further chain) above

In the case of `NC(=O)c1ccc(Oc2sc(C(N)=O)c3c2-c2sncc2CC3)cn1`, the microsomal CLint at 1 µM in series [1] was 19 µL/min/mg. The solubility in series [2] worked out at 4.1 µg/mL (≈ 11 µM). The IC50 was 0.93 nM on CDK8/Cyclin C [3] and 0.97 nM in series [4]. Besides, the EC50 in series [5] is 1.4 nM.
For the compound `NC(=O)c1sc(Oc2cccnc2)c2c1CCc1cnsc1-2`, the microsomal CLint at 1 µM in series [1] came to 55 µL/min/mg. The figures for the IC50 (at CDK8/Cyclin C [3]; in series [4]) were 1.5 nM and 2.7 nM, respectively. Besides, the concentration giving a half-maximal response (EC50) in series [5] stood at 3 nM.
As to `NC(=O)c1[nH]cc(-c2ccncc2)c1Cl`, the IC50 at CDK8/Cyclin C [6] came to 7 nM.
In the case of `CNC(=O)c1sc(SC)c2c1CCc1cnsc1-2`, the IC50 turned out to be 9.3 nM on CDK8/Cyclin C [3] and 22 nM in series [4]. Moreover, the concentration giving a half-maximal response (EC50) in series [5] was found to be 140 nM.
The corresponding values for `CSc1sc(C(=O)O)c2c1-c1sncc1CC2` are 9.5 nM, 12 nM and more than 10000 nM.
`CSc1sc(C(N)=O)c2c1-c1c(cnn1C)CC2`: the IC50 came out at 18 nM at CDK8/Cyclin C [3] and 19 nM in series [4]. Moreover, the EC50 in series [5] is 25 nM.
Regarding `OC[C@H](Nc1cncc(-c2ccc(O)c(Cl)c2)n1)c1ccccc1`, the IC50 at CDK8/Cyclin C [6] is 0.2 nM.
On to `CC(=O)Nc1ccc(Oc2sc(C(N)=O)c3c2-c2sncc2CC3)cn1`, for which, in series [1], the microsomal CLint at 1 µM was 61 µL/min/mg. Besides, the concentration in solution in series [2] (solubility) came to 0.72 µg/mL (≈ 1.86 µM). In addition, the IC50 (on CDK8/Cyclin C [3]; in series [4]) was 0.57 nM each time. Further, the EC50 in series [5] is 0.4 nM.
On to `CS(=O)(=O)c1sc(C(N)=O)c2c1-c1sncc1CC2`, for which the IC50 on CDK8/Cyclin C [3] came out at 63 nM; in series [4], 110 nM. For the same compound, the EC50 in series [5] worked out at 220 nM.
For `OC[C@H](Nc1cncc(-c2ccc3[nH]ncc3c2)c1)c1ccccc1`, the IC50 at CDK8/Cyclin C [6] was determined as 0.4 nM.
For the compound `CNC(=O)c1ccc(Oc2sc(C(N)=O)c3c2-c2sncc2CC3)cn1`, the microsomal CLint at 1 µM in series [1] worked out at 23 µL/min/mg. This compound displayed a solubility in series [2] of 11 µg/mL (≈ 28.5 µM). The IC50 was 1.9 nM at CDK8/Cyclin C [3] and 1 nM in series [4]. For the same compound, in series [5], the EC50 came to 2.6 nM.
Regarding `COc1sc(C(N)=O)c2c1-c1sncc1CC2`, the results for the IC50 (at CDK8/Cyclin C [3]; in series [4]) were 2.3 nM and 2.8 nM, respectively. For the same compound, in series [5], the EC50 was found to be 9.1 nM.
In the case of `COCCNC(=O)c1ccc(Oc2sc(C(N)=O)c3c2-c2sncc2CC3)c(C)n1`, the microsomal CLint at 1 µM in series [1] came to 71 µL/min/mg. This compound returned a solubility in series [2] of 6.7 µg/mL (≈ 15.1 µM). The figures for the IC50 (on CDK8/Cyclin C [3]; in series [4]) were 1.4 nM and 1.3 nM, respectively. Further, in series [5], the EC50 was determined as 0.35 nM.
As for `NC(=O)c1sc(Oc2ccccc2)c2c1CCc1cnsc1-2`, the microsomal CLint at 1 µM in series [1] came out at 193 µL/min/mg. For the same compound, the IC50 at CDK8/Cyclin C [3] was determined as 0.34 nM; in series [4] it was 0.55 nM. In series [5], the EC50 came out at 0.77 nM.
As for `CSc1sc(C(=O)Nc2ccsn2)c2c1-c1sncc1CC2`, the IC50 on CDK8/Cyclin C [3] turned out to be 66 nM; in series [4] it was 93 nM. Moreover, the EC50 in series [5] is 620 nM.
As to `CSc1sc(C(N)=O)c2c1-c1nn(C)cc1CC2`, the half-inhibitory concentration (IC50) on CDK8/Cyclin C [3] is more than 10000 nM. The EC50 in series [5] was more than 10000 nM.
In the case of `Cc1c(Oc2sc(C(N)=O)c3c2-c2sncc2CC3)ccc[n+]1[O-]`, the IC50 on CDK8/Cyclin C [3] was 4.4 nM; in series [4] it was 9.3 nM. The 50% effective concentration (EC50) in series [5] came out at 8.3 nM.
The corresponding values for `CSc1sc(C(=O)N(C)C)c2c1-c1sncc1CC2` are 68 nM, 120 nM and 1700 nM.
Take `CC(C)(O)CNC(=O)c1ccc(Oc2sc(C(N)=O)c3c2-c2sncc2CC3)cn1`: the microsomal CLint at 1 µM in series [1] was 21 µL/min/mg. Also, the concentration in solution in series [2] (solubility) came to 56 µg/mL (≈ 126 µM). Moreover, the IC50 (on CDK8/Cyclin C [3]; in series [4]) was 2.4 nM each time. Also, in series [5], the EC50 turned out to be 7.4 nM.
As to `CSc1sc(C(=O)Nc2ccccc2)c2c1-c1sncc1CC2`, the results for the IC50 (on CDK8/Cyclin C [3]; in series [4]) were 540 nM and 700 nM, respectively. Moreover, in series [5], the EC50 is more than 10000 nM.
The corresponding values for `CSc1sc(C#N)c2c1-c1sncc1CC2` are 23 nM, 46 nM and 490 nM.
Regarding `NC(=O)c1sc(Oc2ccc(N)nc2)c2c1CCc1cnsc1-2`, the microsomal CLint at 1 µM in series [1] turned out to be 30 µL/min/mg. In addition, the solubility in series [2] was found to be 4.5 µg/mL (≈ 13.1 µM). Further, the IC50 worked out at 0.6 nM at CDK8/Cyclin C [3] and 1.1 nM in series [4]. The EC50 in series [5] came out at 2.3 nM.
For the compound `Cc1ccc(Oc2sc(C(N)=O)c3c2-c2sncc2CC3)cn1`, the microsomal CLint at 1 µM in series [1] is 75 µL/min/mg. This compound came in with a solubility in series [2] of 23 µg/mL (≈ 67 µM). The IC50 on CDK8/Cyclin C [3] was determined as 0.99 nM; in series [4], 1.3 nM. Moreover, the EC50 in series [5] turned out to be 3 nM.
The corresponding values for `CCOCCNC(=O)c1ccc(Oc2sc(C(N)=O)c3c2-c2sncc2CC3)cn1` are 73 µL/min/mg, 15 µg/mL (≈ 33.7 µM), 1.1 nM, 1.9 nM and 1.5 nM.
In the case of `CSc1sc(C(=O)Nc2ccccn2)c2c1-c1sncc1CC2`, the IC50 on CDK8/Cyclin C [3] stood at 180 nM; in series [4] it was 400 nM. The EC50 in series [5] amounted to 2800 nM.
The corresponding values for `CSc1sc(C(N)=O)c2c1-c1snnc1CC2` are 60 nM, 130 nM and 550 nM.
On to `CSc1sc(C(=O)Nc2ccn(C)n2)c2c1-c1sncc1CC2`, for which the results for the IC50 (at CDK8/Cyclin C [3]; in series [4]) were 22 nM and 65 nM, respectively. For the same compound, the EC50 in series [5] was found to be 1400 nM.
For `NC(=O)c1sc(Oc2ccccn2)c2c1CCc1cnsc1-2`, the microsomal CLint at 1 µM in series [1] worked out at 101 µL/min/mg. Also, the IC50 on CDK8/Cyclin C [3] stood at 11 nM; in series [4] it was 25 nM. Besides, the EC50 in series [5] came to 66 nM.
The corresponding values for `Cc1cncc(Oc2sc(C(N)=O)c3c2-c2sncc2CC3)c1` are 188 µL/min/mg, 5.1 nM, 9.2 nM and 28 nM.
Regarding `CSc1sc(C(N)=O)c2c1-c1[nH]ncc1CC2`, the IC50 at CDK8/Cyclin C [3] was 1700 nM; in series [4] it was 3100 nM. Moreover, the EC50 in series [5] turned out to be 1300 nM.
The corresponding values for `C[S+]([O-])c1sc(C(N)=O)c2c1-c1sncc1CC2` (stereo not given) are 88 nM, 150 nM and 70 nM.
With `CNc1ccc(Oc2sc(C(N)=O)c3c2-c2sncc2CC3)cn1`, in series [1], the microsomal CLint at 1 µM is 127 µL/min/mg. The compound further registered a solubility in series [2] of 4 µg/mL (≈ 11.2 µM). Moreover, the IC50 at CDK8/Cyclin C [3] was 0.59 nM; in series [4] it was 0.36 nM. For the same compound, the half-maximal effective concentration (EC50) in series [5] was found to be 0.58 nM.
On to `Cc1ccncc1Oc1sc(C(N)=O)c2c1-c1sncc1CC2`, for which the microsomal CLint at 1 µM in series [1] was 65 µL/min/mg. Moreover, the IC50 at CDK8/Cyclin C [3] is 4.7 nM; in series [4], 6.6 nM. Besides, in series [5], the EC50 came to 16 nM.
For `CSc1sc(C(N)=O)c2c1-c1oncc1CC2`, the values for the IC50 (on CDK8/Cyclin C [3]; in series [4]) were 45 nM and 71 nM, respectively. In series [5], the EC50 is 200 nM.
The corresponding values for `CSc1sc(C(=O)Nc2ccon2)c2c1-c1sncc1CC2` are 12 nM, 15 nM and 890 nM.
`Cc1ncccc1Oc1sc(C(N)=O)c2c1-c1sncc1CC2`: the microsomal CLint at 1 µM in series [1] came out at 86 µL/min/mg. Besides, the concentration for half-maximal inhibition (IC50) on CDK8/Cyclin C [3] came out at 0.47 nM; in series [4] it was 0.77 nM. The concentration giving a half-maximal response (EC50) in series [5] was found to be 2 nM.
With `CN(C)C(=O)c1ccc(Oc2sc(C(N)=O)c3c2-c2sncc2CC3)cn1`, in series [1], the microsomal CLint at 1 µM came out at 36 µL/min/mg. In addition, in series [2], the concentration in solution (solubility) was 65 µg/mL (≈ 162 µM). Also, the concentration for half-maximal inhibition (IC50) at CDK8/Cyclin C [3] is 23 nM; in series [4] it was 21 nM. In addition, the half-maximal effective concentration (EC50) in series [5] was 21 nM.

A word on the solubility: it is the dissolved amount per volume that the medium holds. Broadly, the IC50 is the concentration needed to halve the response being measured. The term EC50 denotes the concentration needed to bring the measured effect to its halfway point.

(Values after ChEMBL document CHEMBL4028808, “Design and synthesis of selective CDK8/19 dual inhibitors: Discovery of 4,5-dihydrothieno[3',4':3,4]benzo[1,2-d]isothiazole derivatives” (Bioorg Med Chem, 2017).)
